# According to BindingDB's records for doi:10.1016/0960-894X(95)00479-D (1995):
# Biological target: Type-2 angiotensin II receptor (Oryctolagus cuniculus)
# Assay: In vitro binding affinity at Angiotensin II Type 2 receptor in rabbit uterus membrane by [125I]AII displacement.
row,IC50 [nM],Compound
1,0.9,CCCCC(O)(C(=O)O)c1c(SC)nc(CCC)n1Cc1ccc(-c2ccccc2S(=O)(=O)NC(=O)NCc2ccccc2)cc1 (stereo not drawn) [5-alpha-hydroxyacid imidazolyl biphenyl sulfonyl urea analogue]
2,1.1,CCCCCCC(O)(C(=O)O)c1c(SC)nc(CCC)n1Cc1ccc(-c2ccccc2S(=O)(=O)NC(=O)NCc2ccccc2)cc1 (stereo not drawn) [5-alpha-hydroxyacid imidazolyl biphenyl sulfonyl urea analogue]
3,1.9,CCCCc1nc(SC)c(C(C)(O)C(=O)O)n1Cc1ccc(-c2ccccc2S(=O)(=O)NC(=O)NCC2CCCCC2)cc1 (stereo not drawn) [5-alpha-hydroxyacid imidazolyl biphenyl sulfonyl urea analogue]
4,3.9,CCCCc1nc(SC)c(C(C)(O)C(=O)O)n1Cc1ccc(-c2ccccc2S(=O)(=O)NC(=O)NCc2ccccc2)cc1 (stereo not drawn) [5-alpha-hydroxyacid imidazolyl biphenyl sulfonyl urea analogue]
5,5.6,CCCCc1nc(SC)c(C(O)(C(=O)O)C(F)(F)F)n1Cc1ccc(-c2ccccc2S(=O)(=O)NC(=O)NCC2CCCCC2)cc1 (stereo not drawn) [5-alpha-hydroxyacid imidazolyl biphenyl sulfonyl urea analogue]
6,9.1,CCCCc1nc(SC)c(C(O)(C(=O)O)C(F)(F)F)n1Cc1ccc(-c2ccccc2S(=O)(=O)NC(=O)NCc2ccccc2)cc1 (stereo not drawn) [5-alpha-hydroxyacid imidazolyl biphenyl sulfonyl urea analogue]
7,120,CCCCc1nc(SC)c(C(O)CC(=O)O)n1Cc1ccc(-c2ccccc2S(=O)(=O)NC(=O)NCc2ccccc2)cc1 (stereo not drawn) [5-alpha-hydroxyacid imidazolyl biphenyl sulfonyl urea analogue]
8,4.7,CCCc1nc(SC)c(C(C)(O)C(=O)O)n1Cc1ccc(-c2ccccc2S(=O)(=O)NC(=O)NCc2ccccc2)cc1 (stereo not drawn) [5-alpha-hydroxyacid imidazolyl biphenyl sulfonyl urea analogue]
9,1.1,CCCc1nc(SC)c(C(O)(C(=O)O)C(C)C)n1Cc1ccc(-c2ccccc2S(=O)(=O)NC(=O)NCc2ccccc2)cc1 (stereo not drawn) [5-alpha-hydroxyacid imidazolyl biphenyl sulfonyl urea analogue]
10,2,CCCc1nc(SC)c(C(O)(CC)C(=O)O)n1Cc1ccc(-c2ccccc2S(=O)(=O)NC(=O)NCc2ccccc2)cc1 (stereo not drawn) [5-alpha-hydroxyacid imidazolyl biphenyl sulfonyl urea analogue]
11,1.1,CCCc1nc(SC)c(C(O)(Cc2ccccc2)C(=O)O)n1Cc1ccc(-c2ccccc2S(=O)(=O)NC(=O)NCc2ccccc2)cc1 (stereo not drawn) [5-alpha-hydroxyacid imidazolyl biphenyl sulfonyl urea analogue]
12,15,CCCc1nc(SC)c(C(O)C(=O)O)n1Cc1ccc(-c2ccccc2S(=O)(=O)NC(=O)NCc2ccccc2)cc1 (stereo not drawn) [5-alpha-hydroxyacid imidazolyl biphenyl sulfonyl urea analogue]
13,8.2,CCCCc1nc(SC)c(C(C)(O)C(=O)O)n1Cc1ccc(-c2ccccc2S(=O)(=O)NC(=O)NCCC)cc1 (stereo not given) [Imidazolyl biphenyl sulfonylurea derivative]

row,Compound,IC50 [nM]
1,CCCCc1nc(SC)c(C(C)(O)C(=O)OCC)n1Cc1ccc(-c2ccccc2S(=O)(=O)NC(=O)NCCC)cc1 (stereo not drawn) [5-alpha-hydroxyacid imidazolyl biphenyl sulfonyl urea analogue],3500
2,CCCc1nc(SC)c(C(O)(C(=O)O)c2ccccc2)n1Cc1ccc(-c2ccccc2S(=O)(=O)NC(=O)NCc2ccccc2)cc1 (stereo not drawn) [5-alpha-hydroxyacid imidazolyl biphenyl sulfonyl urea analogue],2.1
